Data reported in US9701556B1, “Compositions, methods, and systems for reducing contamination” (priority 2004, dated 2017).
Several values for one entry are separate records, joined by “and”; a condition that tells them apart may be missing. Equal values may be shown once.

Assays:
[1] = Treatment of sulfides in municipal wastewater with ferric chelants and hydrogen peroxide; details: for Sulfide Remaining, Dose 1 12 ppm Chelant / Sulfide Remaining, Dose 2 6 ppm Chelant: 37.8 ppm H2O2, start 25.4 ppm sulfide; for Sulfide Remaining, Dose 1 20 ppm Chelant / Sulfide Remaining, Dose 2 10 ppm Chelant: 105.8 ppm H2O2, start 42.3 ppm sulfide; for Percentage of Sulfide Treated, Dose 1 12 ppm Chelant 37.8 ppm H2O2 / Percentage of Sulfide Treated, Dose 2 6 ppm Chelant 37.8 ppm H2O2 / Percentage of Sulfide Treated, Dose 1 20 ppm Chelant 105.8 ppm H2O2 / Percentage of Sulfide Treated, Dose 2 10 ppm Chelant 105.8 ppm H2O2: after 30 minutes; for Percentage of Sulfide Treated, Dose 1 12 ppm Chelant 37.8 ppm H2O2 / Percentage of Sulfide Treated, Dose 2 6 ppm Chelant 37.8 ppm H2O2: 1.5:1.0 ratio of peroxide to sulfide; for Percentage of Sulfide Treated, Dose 1 20 ppm Chelant 105.8 ppm H2O2 / Percentage of Sulfide Treated, Dose 2 10 ppm Chelant 105.8 ppm H2O2: 2.5:1.0 ratio of peroxide to sulfide; for sulfide reduction after 15 minutes: 2.5:1.0 peroxide to sulfide, 105.8 ppm hydrogen peroxide, 20 ppm chelant where added, peroxide alone averaged; for sulfide treatment after 15 minutes: 37.8 ppm hydrogen peroxide, 12 ppm chelant where added; for sulfide treatment compared with hydrogen peroxide alone, in words: over 30 minutes of treatment
heterotrophic bacteria = assay: Disinfection of wastewater with chelated iron compounds, total heterotrophic bacteria counts; assay type: cell-based; details: for Test 1 CFUs/ml, 19.8 ppm H2O2 6 ppm Fe-Chelant / Test 2 CFUs/ml, 39.6 ppm H2O2 12 ppm Fe-Chelant / Test 3 CFUs/ml, 12 ppm Fe-Chelant: 30 minutes, raw average 18,188 CFUs; for Test 3 CFUs/ml, 12 ppm Fe-Chelant: chelant alone, no H2O2; for disinfection effect, in words: compared with hydrogen peroxide alone
Protocol: A 10 gallon sample of wastewater from the Massaponax Wastewater Plant was collected and allowed to sit undisturbed for thirty minutes. The clarified supernatant was then pored off of the top of the settled solids within the sample. The supernatant was then mixed and four samples were collected to determine untreated heterotrophic bacteria counts. […] were dissolved in distilled water at 0.4334M. Ferric chloride was added in amounts to achieve saturation of chelant sites on the respective chelants. […] Twenty individual liter samples of supernatant were then decanted from the well-mixed wastewater sample for testing. Four chelated iron products with peroxide were tested at two test concentrations and compared to samples receiving peroxide only and iron chelate only. […] Individual samples were dosed with the respective additives, mixed with a magnetic stir bar and allowed to react for 30 minutes. Samples were then decanted to sterile sample containers containing sodium thiosulfate to stop the oxidation process and preserve the sample. Samples were then placed in a refrigerator until all samples were finished. Samples were packaged in a standard cooler with ice packs and sent via overnite delivery to ProChem Labs in Lynchburg, Va. for analysis for total heterotrophic bacteria counts.

[2] = Treatment of sulfides in municipal wastewater with ferric chelants and ozone; details: 4 ppm ferric chelant where added; for sulfide remaining: ozone at ~13.4 ppm; for Overall total percentage of sulfide reduction: ozone
[3] = Comparative treatment of 2,4-D in water, GC analysis; details: after four hours
Fecal Coliform = assay: Disinfection of wastewater, fecal coliform count; assay type: cell-based; details: 50 microliters 35% H2O2 (with or without 50 microliters Fe-GLC), after twenty minutes; control 2200
[4] = cited from earlier work
[5] = Series One, contact time 5 minutes
[6] = Series One, contact time 15 minutes
[7] = Series One, contact time 30 minutes
[8] = Series One, no H2O2, start 25.4 ppm sulfide, contact time 30 minutes
[9] = Series Two, 20 ppm chelant, no H2O2, start 42.3 ppm sulfide, contact time 30 minutes
[10] = Series Two, contact time 5 minutes
[11] = Series Two, contact time 15 minutes
[12] = Series Two, contact time 30 minutes
[13] = start 13.70, contact time 5 minutes
[14] = start 13.70, contact time 10 minutes
[15] = start 13.70, contact time 20 minutes
[16] = Series One, contact time 5 minutes, listed as Ferric NTA

Compound | Sulfide Remaining, Dose 1 12 ppm Chelant [1, 5] [ppm] | Sulfide Remaining, Dose 2 6 ppm Chelant [1, 5] [ppm] | Sulfide Remaining, Dose 1 12 ppm Chelant [1, 6] [ppm] | Sulfide Remaining, Dose 2 6 ppm Chelant [1, 6] [ppm] | Sulfide Remaining, Dose 1 12 ppm Chelant [1, 7] [ppm] | Sulfide Remaining, Dose 2 6 ppm Chelant [1, 7] [ppm] | Sulfide Remaining, Dose 4 Chelant Only [1, 8] [ppm] | Sulfide Remaining, Dose 4 Chelant Only [1, 9] [ppm] | Sulfide Remaining, Dose 1 20 ppm Chelant [1, 10] [ppm] | Sulfide Remaining, Dose 2 10 ppm Chelant [1, 10] [ppm] | Sulfide Remaining, Dose 1 20 ppm Chelant [1, 11] [ppm] | Sulfide Remaining, Dose 2 10 ppm Chelant [1, 11] [ppm] | Sulfide Remaining, Dose 1 20 ppm Chelant [1, 12] [ppm] | Sulfide Remaining, Dose 2 10 ppm Chelant [1, 12] [ppm] | Percentage of Sulfide Treated, Dose 1 12 ppm Chelant 37.8 ppm H2O2 [1] | Percentage of Sulfide Treated, Dose 2 6 ppm Chelant 37.8 ppm H2O2 [1] | Percentage of Sulfide Treated, Dose 1 20 ppm Chelant 105.8 ppm H2O2 [1] | Percentage of Sulfide Treated, Dose 2 10 ppm Chelant 105.8 ppm H2O2 [1] | Overall total percentage of sulfide reduction [2] [%] | sulfide treatment compared with hydrogen peroxide alone, in words [1] | other results
O=C([O-])CC(O)(CC(=O)[O-])C(=O)[O-].[Fe+3] [Ferric Citrate] | 17.8 | 18.1 | 14.1 | 15.8 | 10.5 | 12.4 | 25.0 | 42.0 | 30.1 | 29.9 | 19.6 | 20.2 | 14.3 | 12.9 | 58.7 | 51.2 | 66.2 | 69.5 | – | – | –
O=C([O-])CN(CC(=O)[O-])CC(=O)[O-].[Fe+3] [Fe-NTA] | – | – | – | – | – | – | – | 41.0 | 23.3 | 26.7 | 12.6 | 16.3 | 2.8 | 4.2 | 78.3 | 68.9 | 93.4 | 90.0 | 91 | noticeably better | Test 1 CFUs/ml, 19.8 ppm H2O2 6 ppm Fe-Chelant (heterotrophic bacteria): 370 CFUs/ml; Test 2 CFUs/ml, 39.6 ppm H2O2 12 ppm Fe-Chelant (heterotrophic bacteria): 75 CFUs/ml; Test 3 CFUs/ml, 12 ppm Fe-Chelant (heterotrophic bacteria): 18,300 CFUs/ml; disinfection effect, in words (heterotrophic bacteria): very little effect on viable cells beyond that exhibited by hydrogen peroxide alone; sulfide remaining [2, 13]: 3.40 ppm; sulfide remaining [2, 14]: 1.90 ppm; sulfide remaining [2, 15]: 1.30 ppm; Overall total percentage of sulfide reduction ([2]; listed as ferric NTA): 91%; sulfide reduction after 15 minutes [1]: 70.2%; sulfide treatment after 15 minutes [1]: 73%; Sulfide Remaining, Dose 1 12 ppm Chelant [1, 16]: 15.2 ppm and 20.0 ppm; Sulfide Remaining, Dose 2 6 ppm Chelant [1, 16]: 15.9 ppm and 20.3 ppm; Sulfide Remaining, Dose 2 6 ppm Chelant ([1]; Series One, contact time 15 minutes, listed as Ferric NTA): 12.6 ppm and 16.4 ppm; Sulfide Remaining, Dose 2 6 ppm Chelant ([1]; Series One, contact time 30 minutes, listed as Ferric NTA): 7.9 ppm and 14.9 ppm; Sulfide Remaining, Dose 4 Chelant Only ([1]; Series One, no H2O2, start 25.4 ppm sulfide, contact time 30 minutes, listed as Ferric NTA): 24.6 ppm and 25.2 ppm
Ferric Ascorbate | 16.6 | 17.2 | 11.8 | 12.4 | 9.6 | 10.4 | 24.6 | 41.8 | 26.9 | 27.2 | 17.7 | 19.7 | 10.8 | 11.9 | 62.2 | 59.0 | 74.5 | 71.9 | – | some modest improvement over hydrogen peroxide treatment alone | –
ferric gluconate [Fe-GLC] | 14.2 | 15.9 | 7.3 | 11.5 | 4.3 | 7.4 | 24.9 | 43.0 | 18.6 | 23.5 | 5.6 | 7.3 | 1.1 | 2.2 | 83.1 | 70.8 | 97.4 | 94.8 | 90 | noticeably better | effect on 2,4-D, in words [3]: substantially reduced; Fecal Coliform (Fecal Coliform): no detectable CFUs; Test 1 CFUs/ml, 19.8 ppm H2O2 6 ppm Fe-Chelant (heterotrophic bacteria): 98 CFUs/ml; Test 2 CFUs/ml, 39.6 ppm H2O2 12 ppm Fe-Chelant (heterotrophic bacteria): 28 CFUs/ml; Test 3 CFUs/ml, 12 ppm Fe-Chelant (heterotrophic bacteria): 22,600 CFUs/ml; disinfection effect, in words (heterotrophic bacteria): better than peroxide alone; sulfide remaining [2, 13]: 3.40 ppm; sulfide remaining [2, 14]: 2.80 ppm; sulfide remaining [2, 15]: 1.40 ppm; Overall total percentage of sulfide reduction ([2]; listed as Fe-Gluconate): 90%; sulfide reduction after 15 minutes [1]: 86.8%; sulfide treatment after 15 minutes [1]: 70%
O=C([O-])[C@H](O)[C@@H](O)[C@H](O)[C@H](O)CO.[Na+] [Sodium gluconate] | – | – | – | – | – | – | – | – | – | – | – | – | – | – | – | – | – | – | – | – | readily biodegradable ([4]; after 2 days): 98%; solubility in water [4]: very soluble in water
O=[O+][O-] [Ozone only, Ozone] | – | – | – | – | – | – | – | – | – | – | – | – | – | – | – | – | – | – | 46 | – | sulfide remaining [2, 13]: 8.05 ppm; sulfide remaining [2, 14]: 7.50 ppm; sulfide remaining [2, 15]: 7.40 ppm
Ferric Gallate | 18.4 | 18.0 | 14.0 | 13.6 | 10.4 | 11.2 | 24.7 | 43.0 | 29.2 | 27.8 | 20.2 | 22.2 | 13.2 | 13.1 | 59.1 | 55.9 | 68.7 | 69.0 | – | did not perform well overall | –
O=C([O-])CN(CCN(CC(=O)[O-])CC(=O)[O-])CC(=O)[O-].[Fe+3] [Fe-EDTA] | – | – | – | – | – | – | – | – | – | – | – | – | – | – | 68.5 | 64.2 | 87.5 | 83.7 | 64 | noticeably better | Test 1 CFUs/ml, 19.8 ppm H2O2 6 ppm Fe-Chelant (heterotrophic bacteria): 360 CFUs/ml; Test 2 CFUs/ml, 39.6 ppm H2O2 12 ppm Fe-Chelant (heterotrophic bacteria): 59 CFUs/ml; Test 3 CFUs/ml, 12 ppm Fe-Chelant (heterotrophic bacteria): 18,200 CFUs/ml; disinfection effect, in words (heterotrophic bacteria): very little effect on viable cells beyond that exhibited by hydrogen peroxide alone; Overall total percentage of sulfide reduction ([2]; listed as ferric EDTA): 64%; sulfide reduction after 15 minutes [1]: 60%; sulfide treatment after 15 minutes [1]: 61%
O=C([O-])CN(CCO)CC(=O)[O-].[Fe+3] [Fe-HEIDA] | – | – | – | – | – | – | – | – | – | – | – | – | – | – | 44.1 | 41.3 | 69.5 | 66.9 | 60 | did not perform well | Test 1 CFUs/ml, 19.8 ppm H2O2 6 ppm Fe-Chelant (heterotrophic bacteria): 1350 CFUs/ml; Test 2 CFUs/ml, 39.6 ppm H2O2 12 ppm Fe-Chelant (heterotrophic bacteria): 84 CFUs/ml; Test 3 CFUs/ml, 12 ppm Fe-Chelant (heterotrophic bacteria): 16,700 CFUs/ml; disinfection effect, in words (heterotrophic bacteria): very little effect on viable cells beyond that exhibited by hydrogen peroxide alone; Overall total percentage of sulfide reduction ([2]; listed as ferric HEIDA): 60%
